From US8202563B2, “Acidulate composition and methods for making and utilizing the same” (Clabber Girl Corporation, priority 2008, dated 2012)

Tested on: microbial growth (mold)
Experiment: 6-month storage test of flour tortillas, visual signs of microbial growth
Settings: flour tortillas with sodium propionate and potassium sorbate, acidulate 0.2832 weight %, stored at about 77° F., end of 6-month period
Experimental: The ingredients listed in Table 1 were combined at 100° F. The water and flour mixture was mixed for 2 minutes at a low speed with a dough hook. The dough was allowed to stand for 5 minutes and then divided into 50-gram balls that were heat pressed at 175° F. for 10 seconds. The raw tortillas were then baked on a griddle at 400° F. for 30 seconds on each side, and subsequently cooled.
Tortillas from each test batch were evaluated after baking for volume, eating quality, and microbial growth. Thereafter, tortilla specimens from of each batch were heat sealed in cellophane bags, bagged in ZIPLOCK® freezer pouches and stored at about 77° F. All test batches of tortilla samples were checked periodically for visual signs of microbial growth, volume reduction, and overall appearance over a 6-month period.

O=C(O)/C=C/C(=O)O [raw fumaric acid, fumaric acid]
visual signs of microbial growth / mold on tortillas: visual signs of microbial growth, albeit to a lesser extent than the control tortillas
